Results as given in patent US12552765B2, “Small molecule modulators of pantothenate kinases” (ST. JUDE CHILDREN'S RESEARCH HOSPITAL, INC., priority 2016, dated 2026).

Target: hPanK3 (Homo sapiens, UniProt Q9H999)
Experiment: Inhibition of PanK kinase activity (phosphorylation of pantothenate, purified protein)
Format: biochemical
Conditions: not given

hPanK3, sequence (Q9H999 whole entry): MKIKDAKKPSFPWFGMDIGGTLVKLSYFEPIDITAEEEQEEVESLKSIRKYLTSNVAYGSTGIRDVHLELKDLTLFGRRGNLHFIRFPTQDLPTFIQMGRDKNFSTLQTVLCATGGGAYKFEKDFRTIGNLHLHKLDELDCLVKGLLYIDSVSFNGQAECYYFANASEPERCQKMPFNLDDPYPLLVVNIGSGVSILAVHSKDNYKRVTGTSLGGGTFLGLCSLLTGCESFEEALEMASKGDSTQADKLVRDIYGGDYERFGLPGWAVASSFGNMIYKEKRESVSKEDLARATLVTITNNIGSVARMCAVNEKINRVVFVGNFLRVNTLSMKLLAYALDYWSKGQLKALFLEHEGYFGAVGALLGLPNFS

| SMILES | IC50 |
| --- | --- |
| N#Cc1ccc(N2CCN(C(=O)NC3CCCCC3)CC2)nc1 [Compound 19] | > 10 µM |
| CC(C)(C)NC(=O)N1CCN(c2ccc(C#N)cn2)CC1 [Compound 20] | > 10 µM |
| CCCCCCCCNC(=O)N1CCN(c2ccc(C#N)cn2)CC1 [Compound 21] | > 10 µM |
| CC(C)NC(=O)N1CCN(c2ccc(C#N)cn2)CC1 [Compound 22] | > 10 µM |
| Cc1ccc(CNC(=O)N2CCN(c3ccc(C#N)cn3)CC2)cc1 [Compound 24] | > 10 µM |
| N#Cc1ccc(N2CCN(C(=O)NCc3ccco3)CC2)nc1 [Compound 25] | > 10 µM |
| CC(C)c1cc(NC(=O)N2CCN(c3ccc(C#N)cn3)CC2)on1 [Compound 27] | > 10 µM |

Same assay, conditions: Morrison Ki fit

| SMILES | Ki |
| --- | --- |
| CCC(C)c1ccc(NC(=O)N2CCN(c3ccc(C#N)nn3)CC2)cc1 (centres unmarked) [Compound 66] | 7.8 nM |
| CC(C)(C)c1ccc(CC(=O)N2CCN(c3ccc(C#N)nn3)CC2)cc1 [Compound 73] | 0.97 nM |
| CC(C)(C)c1ccc(CC(=O)N2CCN(c3ccc(Cl)nn3)CC2)cc1 [Compound 74] | 1.8 nM |
| CC(C)c1ccc(OC(=O)N2CCN(c3ccc(Cl)nn3)CC2)cc1 [Compound 76] | 1.8 nM |
| CC(C)(C)c1ccc(C(F)(F)C(=O)N2CCN(c3ccc(C#N)nn3)CC2)cc1 [Compound 77] | 20.8 nM |
| Cc1cc(OC(=O)N2CCN(c3ccc(C#N)nn3)CC2)ccc1C(C)C [Compound 80] | 55.7 nM |
| CC(C)c1ccc(CC(=O)N2CCN(c3ccc(C#N)nn3)CC2)nc1 [Compound 82] | 62.5 nM |
| CC(C)c1ccc(CC(=O)N2CC[C@@H](Nc3ccc(C#N)nn3)C2)cc1 [Compound 84] | 9.1 nM |
| CC(C)c1ccc(CC(=O)N[C@H]2CCN(c3ccc(C#N)nn3)C2)cc1 [Compound 85] | 7.1 nM |
| CC(C)c1ccc(CC(=O)N[C@@H]2CCN(c3ccc(C#N)nn3)C2)cc1 [Compound 86] | 26.6 nM |
| CC(C)c1ccc(CC(=O)N[C@H]2CN(c3ccc(C#N)nn3)C[C@@H]2O)cc1 [Compound 87] | 12.3 nM |
| CC(C)c1ccc(NC(=O)N[C@H]2CCN(c3ccc(C#N)nn3)C2)cc1 [Compound 88] | 36.3 nM |
| CC(C)c1ccc(CC(=O)NCCNc2ccc(C#N)nn2)cc1 [Compound 90] | 28.3 nM |
| CC(C)c1ccc(CC(=O)N[C@@H]2CN(c3ccc(C#N)nn3)C[C@H]2O)cc1 [Compound 91] | 35 nM |
| CC(C)c1ccc(CC(=O)N[C@@H]2CN(c3ccc(C#N)nn3)C[C@@H]2O)cc1 [Compound 92] | 40.8 nM |
| CC(C)c1ccc(CC(=O)N[C@H]2CCN(c3ccc(C#N)nn3)C2)cc1F [Compound 94] | 1.1 nM |
| CC(C)c1ccc(CC(=O)N[C@H]2CN(c3ccc(C#N)nn3)C[C@@H]2O)cc1F [Compound 95] | 51 nM |
| CC(C)c1ccc(CC(=O)N[C@H]2CCN(c3ccc(C#N)nn3)C2)c(F)c1 [Compound 100] | 1.5 nM |
| CC(C)c1ccc(CC(=O)N[C@@H]2CN(c3ccc(C#N)nn3)C[C@H]2O)cc1F [Compound 105] | 44.8 nM |
| CC(C)c1ccc(CC(=O)N[C@H]2CCN(c3ccc(C#N)nn3)C2)cn1 [Compound 106] | 5.9 nM |
| CC(C)c1ccc(CC(=O)N[C@@H]2CN(c3ccc(C#N)nn3)C[C@H]2O)c(F)c1 [Compound 107] | 21.1 nM |
| CC(C)c1ccc(N(C)C(=O)N2CCN(c3ccc(C#N)nn3)CC2)cc1 [Compound 108] | 14.1 nM |
| CC(C)c1ccc(OC(=O)N2CCN(c3cnc(C#N)cn3)CC2)cc1 [Compound 110] | 33.7 nM |
| CC(C)c1ccc(NC(=O)N2CCN(c3cnc(Cl)cn3)CC2)cc1 [Compound 113] | 21 nM |

| SMILES | Ki |
| --- | --- |
| CC(C)c1ccc(CC(=O)N2CCN(c3ncc(Cl)nc3N)CC2)cc1 [Compound 116] | 12.5 nM |
| CC(C)c1ccc(CC(=O)NC2CCN(c3ccc(C#N)nn3)CC2)cc1 [Compound 118] | 5 nM |
| CC(C)c1ccc(CC(=O)N2CCN(c3ccc(C#N)nn3)CC2)s1 [Compound 119] | 3.3 nM |
| CC(C)c1ccc(CC(=O)N2CCN(c3ccc([N+](=O)[O-])nc3)CC2)cc1 [Compound 120] | 0.64 nM |
| CC(C)c1ccc(CC(=O)N2CCN(c3ccc(C#N)nn3)C[C@H]2C)cc1 [Compound 121] | 1.4 nM |
| CC(C)c1ccc(CC(=O)N2CCN(c3cnc(Cl)cn3)CC2)s1 [Compound 122] | 4.1 nM |
| CC(C)c1ccc(CC(=O)N2CCN(c3ccc(C#N)nn3)[C@H](C)C2)cc1 [Compound 123] | 0.13 nM |
| CC(C)c1ccc(CC(=O)N2CCN(c3ccc(C#N)nn3)C[C@@H]2C)cc1 [Compound 124] | 1.1 nM |
| CC(C)c1ccc(CC(=O)N2CCN(c3ccc(C#N)nn3)[C@@H](C)C2)cc1 [Compound 126] | 0.09 nM |
| CC(C)c1ccc(CC(=O)N2CCN(c3ccc(C#N)nn3)[C@@H](C)C2)s1 [Compound 128] | 1.3 nM |
| CSc1ccc(CC(=O)N2CCN(c3ccc(C#N)nn3)[C@H](C)C2)cc1 [Compound 129] | 22.4 nM |
| CC(C)c1ccc(CC(=O)N2CCN(c3ccc(C#N)nn3)[C@H](C)C2)cn1 [Compound 131] | 9 nM |
| CC(C)c1ccc(CC(=O)N2CCN(c3ccc(C#N)nn3)[C@@H](C)C2)cn1 [Compound 132] | 12.6 nM |
| CC(C)c1ccc(CC(=O)N2CCN(c3ccc(Cl)nn3)[C@@H](C)C2)cn1 [Compound 133] | 9.7 nM |
| CC(C)c1ccc(CC(=O)N2CCN(c3ccc(Cl)nn3)[C@H](C)C2)cn1 [Compound 134] | 10.6 nM |
| CSc1cccc(CC(=O)N2CCN(c3ccc(C#N)nn3)[C@H](C)C2)c1 [Compound 135] | 38 nM |
| CC(C)c1ccc(CC(=O)N2CCN(c3ccc(C#N)nn3)C(C)(C)C2)cc1 [Compound 136] | 2.4 nM |
| CC(C)c1ccc(CC(=O)N2C[C@@H](C)N(c3ccc(C#N)nn3)[C@@H](C)C2)cc1 [Compound 137] | 0.27 nM |
| CC(C)c1ccc(OC(=O)N2CCN(c3ccc(C#N)nn3)[C@@H](C)C2)cc1 [Compound 138] | 7.6 nM |
| CC(C)c1ccc(OC(=O)N2CCN(c3ccc(C#N)nn3)[C@H](C)C2)cc1 [Compound 139] | 4.7 nM |
| C[C@H]1CN(C(=O)Cc2ccc(C(C)(C)C)cc2)CCN1c1ccc(C#N)nn1 [Compound 140] | 1 nM |
| C[C@@H]1CN(C(=O)Cc2ccc(C(C)(C)C)cc2)CCN1c1ccc(C#N)nn1 [Compound 141] | 1.7 nM |
| CC(c1ccc(CC(=O)N2CCN(c3ccc(C#N)nn3)[C@@H](C)C2)cc1)C(F)(F)F (some centres unmarked) [Compound 144] | 2.5 nM |
| CC(c1ccc(CC(=O)N2CCN(c3ccc(C#N)nn3)[C@H](C)C2)cc1)C(F)(F)F (some centres unmarked) [Compound 145] | 1.5 nM |

Test system: diabetic ob/ob mice
Experiment: Blood glucose in adult male diabetic ob/ob mice
Format: in vivo
Conditions: 10 mg/kg orally at 12-hr intervals, 5 doses, pantothenate-deficient chow, in 30% Captisol; non-diabetic range 120±20 mg/dL
Protocol: Compound was administered orally at 12-hr intervals for a total of 5 doses starting at T=0 hr. Blood glucose from the tail vein was measured just prior to each administration. Compound was formulated in 30% Captisol (o); 30% Captisol only (•).

| SMILES | blood glucose level |
| --- | --- |
| CC(C)c1ccc(CC(=O)N2CCN(c3ccc(C#N)nn3)CC2)cc1 [6-(4-(2-(4-isopropylphenyl)acetyl)piperazin-1-yl)pyridazine-3-carbonitrile] | reduces the blood glucose level to values within the range of non-diabetic mice |
